IC50 data for 53 molecules are collected here from patent US20250171459A1, “2-METHYL-4',5'-DIHYDROSPIRO[PIPERIDINE-4,7'-THIENO[2,3-C]PYRAN] DERIVATIVES AS INHIBITORS OF APOL1 AND METHODS OF USING SAME” (Vertex Pharmaceuticals Incorporated, priority 2022, published 2025).

The target in this assay is T1, APOL1 (Homo sapiens, UniProt O14791).
T1 sequence (O14791 1-398 S342G/I384M): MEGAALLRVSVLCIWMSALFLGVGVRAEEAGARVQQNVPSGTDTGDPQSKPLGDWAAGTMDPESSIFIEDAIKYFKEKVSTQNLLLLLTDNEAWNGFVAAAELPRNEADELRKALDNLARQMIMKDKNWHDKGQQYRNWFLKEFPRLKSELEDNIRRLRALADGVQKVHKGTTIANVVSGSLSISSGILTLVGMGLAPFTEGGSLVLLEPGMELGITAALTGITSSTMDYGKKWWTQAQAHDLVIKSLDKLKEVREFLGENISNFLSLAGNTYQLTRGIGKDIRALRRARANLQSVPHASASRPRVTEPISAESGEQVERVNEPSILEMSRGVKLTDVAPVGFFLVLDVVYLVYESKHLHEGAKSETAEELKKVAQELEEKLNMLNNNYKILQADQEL
The assay is described as follows: MultiTox-Fluor Multiplex Cytotoxicity Assay in tet-inducible APOL1 T-REx-HEK293 cells (cell rescue, ratio of dead to live cells). It is filed as cell-based. Particulars: tet-inducible transgenic APOL1 T-REx-HEK293 cell lines, 50 ng/mL tet, 24 hours; read-out: IP50 (i.e., IC50 for cell proliferation). From the text: The MultiTox-Fluor Multiplex Cytotoxicity Assay is a single-reagent-addition, homogeneous, fluorescence assay that measures the number of live and dead cells simultaneously in culture wells. The assay measures cell viability and cytotoxicity by detecting two distinct protease activities. […] The substrate enters intact cells, where it is cleaved to generate a fluorescent signal proportional to the number of living cells. […] A ratio of dead to live cells is used to normalize data.
The MultiTox reagent was added to each well and placed back in the incubator for an additional 30 minutes. The plate was read on the EnVision plate reader. A ratio of dead to live cells was used to normalize, and data was imported, analyzed, and fit using Genedata Screener (Basel, Switzerland) software. Data was normalized using percent of control, no tet (100% viability), and 50 ng/mL tet treated (0% viability), and fit using Smart Fit. The reagents, methods, and complete protocol for the MultiTox assay are described below.
Cells were washed with DPBS and then trypsinized to dissociate from the flask. Media was used to quench the trypsin, cells were then pelleted at 200 g and resuspended in fresh cell assay media (DMEM, 2% Tet-free FBS, 2 mM L-glutamine, 100 Units/mL penicillin-streptomycin). […] The plates were then incubated at room temperature for one hour.
Tetracycline is needed to induce APOL1 expression. 1 mg/mL tet stock in water was diluted to 250 ng/mL (5×) in cell assay media.
Compounds were dispensed at 200 nL in DMSO. The final top concentration was 10 μM with a 10 point 3-fold dilution in duplicate in the MultiTox assay.
20 μL was transferred from the 5× tet plate to the ARP and mixed, then 5 μL of 5× tet and the compounds were transferred to the cell plate and mixed using the Bravo. The cell plate was placed in the humidified 37° C. 5% CO2 incubator for 24 hours.
The MultiTox-Fluor Multiplex Cytotoxicity Assay was performed in accordance with the manufacturer's protocol. After cells were incubated with tet and compound for 24 hours, 25 μL of 1× MultiTox reagent was added to each well using the Multidrop dispenser; the plates were placed on a plate shaker (600 rpm) for 2 minutes, then centrifuged briefly and placed back in the 37° C. incubator for 30 minutes. The cell viability (excitation: 400 nm, emission: 486 nm) and cytotoxicity (excitation: 485 nm, emission: 535 nm) were read using the EnVision plate reader. A ratio of dead (cytotoxicity) to live (viability) cells was reported. Data was exported and analyzed in Genedata. Data was normalized using percent of control, no tet (100% viability), and 50 ng/mL tet treated (0% viability), and fit using Smart Fit settings in Genedata.

As to `CCc1cc2c(s1)CCO[C@@]21CCN(Cc2cn(Cc3cocn3)nn2)[C@@H](C)C1` [Compound 35], the IC50 lay in the range of 100 to 500 nM.
In the case of `CCc1cc2c(s1)CCO[C@@]21CCN(Cc2cn(CCc3cn(C)cn3)nn2)[C@@H](C)C1` [Compound 36] it was 100 to 500 nM; in that of `CCc1cc2c(s1)CCO[C@@]21CCN(Cc2cn(CCC#N)nn2)[C@@H](C)C1` [Compound 37], below 100 nM; in that of `CCc1cc2c(s1)CCO[C@@]21CCN(Cc2cn(Cc3cnccn3)nn2)[C@@H](C)C1` [Compound 38], 100 to 500 nM.
In the case of `CCc1cc2c(s1)CCO[C@@]21CCN(Cc2cn(Cc3c(CO)cnc(C)c3O)nn2)[C@@H](C)C1` [Compound 39] it was 100 to 500 nM.
For the molecule `CCc1cc2c(s1)CCO[C@@]21CCN(Cc2cn(Cc3ncc(C)o3)nn2)[C@@H](C)C1` [Compound 40], the IC50 lay within 100 to 500 nM.
Take `CCc1cc2c(s1)CCO[C@@]21CCN(Cc2cn(Cc3ccnnc3)nn2)[C@@H](C)C1` [Compound 41]: the IC50 was below 100 nM.
For the molecule `CCc1cc2c(s1)CCO[C@@]21CCN(Cc2cn(CCNC(=O)c3ccncc3)nn2)[C@@H](C)C1` [Compound 42], the IC50 was below 100 nM.
In the case of `CCc1cc2c(s1)CCO[C@@]21CCN(Cc2cn(CCc3cnccn3)nn2)[C@@H](C)C1` [Compound 43] it was 100 to 500 nM; in that of `CCc1cc2c(s1)CCO[C@@]21CCN(Cc2cn(Cc3cnn(C)c3C)nn2)[C@@H](C)C1` [Compound 44], below 100 nM; in that of `CCc1cc2c(s1)CCO[C@@]21CCN(Cc2cn(Cc3cnoc3)nn2)[C@@H](C)C1` [Compound 45], below 100 nM.
Then `CCc1cc2c(s1)CCO[C@@]21CCN(Cc2cn(CCn3cccn3)nn2)[C@@H](C)C1` [Compound 46], with 100 to 500 nM.
In the case of `CCc1cc2c(s1)CCO[C@@]21CCN(Cc2cn(CCc3c[nH]cn3)nn2)[C@@H](C)C1` [Compound 48], the IC50 was below 100 nM.
In the case of `CCc1cc2c(s1)CCO[C@@]21CCN(Cc2cn(Cc3cnn(C)c3)nn2)[C@@H](C)C1` [Compound 49] it was below 100 nM.
In the case of `CCc1cc2c(s1)CCO[C@@]21CCN(Cc2cn(CCNC(=O)c3cnc(C)cn3)nn2)[C@@H](C)C1` [Compound 50] it was below 100 nM; in that of `CCc1cc2c(s1)CCO[C@@]21CCN(Cc2cn(Cc3ncccn3)nn2)[C@@H](C)C1` [Compound 51], 100 to 500 nM.
In the case of `CCc1cc2c(s1)CCO[C@@]21CCN(Cc2cn(Cc3nnc4n3CCCC4)nn2)[C@@H](C)C1` [Compound 52], the IC50 was below 100 nM.
Consider `CCc1cc2c(s1)CCO[C@@]21CCN(Cc2cn(Cc3nc(C)cc(C)n3)nn2)[C@@H](C)C1` [Compound 53], for which the IC50 fell in the range of 500 to 1000 nM.
Then `CCc1cc2c(s1)CCO[C@@]21CCN(Cc2cn(Cc3cn(C)nc3C)nn2)[C@@H](C)C1` [Compound 54], with below 100 nM.
Turning to `CCc1cc2c(s1)CCO[C@@]21CCN(Cc2cn(Cc3ccncn3)nn2)[C@@H](C)C1` [Compound 55], the IC50 lay within 100 to 500 nM.
In the case of `CCc1cc2c(s1)CCO[C@@]21CCN(Cc2cn(Cc3nccn3C)nn2)[C@@H](C)C1` [Compound 56] it was below 100 nM; in that of `CCc1cc2c(s1)CCO[C@@]21CCN(Cc2cn(Cc3c[nH]nc3C)nn2)[C@@H](C)C1` [Compound 57], below 100 nM; in that of `CCc1cc2c(s1)CCO[C@@]21CCN(Cc2cn(CC(C)n3cncn3)nn2)[C@@H](C)C1` (some centres unmarked) [Compound 58], 100 to 500 nM.
Then `CCc1cc2c(s1)CCO[C@@]21CCN(Cc2cn(CC(=O)NC3CC3)nn2)[C@@H](C)C1` [Compound 59], with below 100 nM; and `CCc1cc2c(s1)CCO[C@@]21CCN(Cc2cn(Cc3cnn(CCO)c3)nn2)[C@@H](C)C1` [Compound 60], with below 100 nM; and `CCc1cc2c(s1)CCO[C@@]21CCN(Cc2cn(C3CCCN(C(C)=O)C3)nn2)[C@@H](C)C1` (some centres unmarked) [Compound 61], with 100 to 500 nM.
Then `CCc1cc2c(s1)CCO[C@@]21CCN(Cc2cn([C@H]3CS(=O)(=O)C[C@H]3O)nn2)[C@@H](C)C1` [Compound 62], with below 100 nM.
In the case of `CCc1cc2c(s1)CCO[C@@]21CCN(Cc2cn(CC(=O)N3CCCC3)nn2)[C@@H](C)C1` [Compound 63], the IC50 was below 100 nM.
Then `CCc1cc2c(s1)CCO[C@@]21CCN(Cc2cn(Cc3cc(C)n[nH]3)nn2)[C@@H](C)C1` [Compound 64], with below 100 nM; and `CCc1cc2c(s1)CCO[C@@]21CCN(Cc2cn(Cc3nnc[nH]3)nn2)[C@@H](C)C1` [Compound 65], with 100 to 500 nM; and `CCc1cc2c(s1)CCO[C@@]21CCN(Cc2cn(Cc3c(C)cc(C)nc3O)nn2)[C@@H](C)C1` [Compound 66], with 100 to 500 nM.
In the case of `CCc1cc2c(s1)CCO[C@@]21CCN(Cc2cn(CCc3ncn[nH]3)nn2)[C@@H](C)C1` [Compound 67] it was below 100 nM.
Then `CCc1cc2c(s1)CCO[C@@]21CCN(Cc2cn(CCn3ccnc3C)nn2)[C@@H](C)C1` [Compound 68], with 100 to 500 nM; and `CCc1cc2c(s1)CCO[C@@]21CCN(Cc2cn(CC(O)c3nccn3C)nn2)[C@@H](C)C1` (some centres unmarked) [Compound 69], with below 100 nM; and `CCc1cc2c(s1)CCO[C@@]21CCN(Cc2cn(-c3cnc(C)nc3)nn2)[C@@H](C)C1` [Compound 70], with below 100 nM.
For the molecule `CCc1cc2c(s1)CCO[C@@]21CCN(Cc2cn(-c3cncc(F)c3)nn2)[C@@H](C)C1` [Compound 71], the IC50 was below 100 nM.
Turning to `CCc1cc2c(s1)CCO[C@@]21CCN(Cc2cn(-c3cncnc3)nn2)[C@@H](C)C1` [Compound 72], the IC50 is below 100 nM.
In the case of `CCc1cc2c(s1)CCO[C@@]21CCN(Cc2cn(-c3cccnc3)nn2)[C@@H](C)C1` [Compound 73] it was below 100 nM; in that of `CCc1cc2c(s1)CCO[C@@]21CCN(Cc2cn(CC3(C(O)C(C)C)CC3)nn2)[C@@H](C)C1` (some centres unmarked) [Compound 74], 100 to 500 nM; in that of `CCOCCOCC(O)Cn1cc(CN2CC[C@]3(C[C@@H]2C)OCCc2sc(CC)cc23)nn1` (some centres unmarked) [Compound 75], below 100 nM.
Then `CCc1cc2c(s1)CCOC21CCN(Cc2cn(CC(O)c3ccccn3)nn2)C(C)C1` (centres unmarked) [Compound 76], with 100 to 500 nM; and `CCc1cc2c(s1)CCOC21CCN(Cc2cn(CC3(O)CCOC3)nn2)C(C)C1` (centres unmarked) [Compound 77], with 500 to 1000 nM.
In the case of `CCc1cc2c(s1)CCO[C@@]21CCN(Cc2cn(CC3CCC4(CC3)COC4)nn2)[C@@H](C)C1` [Compound 78] it was 100 to 500 nM; in that of `CCc1cc2c(s1)CCO[C@@]21CCN(Cc2cn(CC3(CO)CCOCC3)nn2)[C@@H](C)C1` [Compound 79], 100 to 500 nM; in that of `CCc1cc2c(s1)CCO[C@@]21CCN(Cc2cn(CC(C)(C)CCO)nn2)[C@@H](C)C1` [Compound 80], 100 to 500 nM.
On to `CCc1cc2c(s1)CCO[C@@]21CCN(Cc2cn(CC(=O)NCCO)nn2)[C@@H](C)C1` [Compound 81], for which the IC50 lay within 100 to 500 nM.
`CCc1cc2c(s1)CCOC21CCN(Cc2cn(CC(C)CO)nn2)C(C)C1` (centres unmarked) [Compound 82]: the IC50 fell in the range of 100 to 500 nM.
As to `CCc1cc2c(s1)CCO[C@@]21CCN(Cc2cn(CC3(CCO)CC3)nn2)[C@@H](C)C1` [Compound 83], the IC50 was in the range of 100 to 500 nM.
In the case of `CCc1cc2c(s1)CCOC21CCN(Cc2cn(CC(C)(O)COC)nn2)C(C)C1` (centres unmarked) [Compound 84] it was below 100 nM; in that of `CCCC(O)Cn1cc(CN2CC[C@]3(C[C@@H]2C)OCCc2sc(CC)cc23)nn1` (some centres unmarked) [Compound 85], below 100 nM.
As for `CCc1cc2c(s1)CCOC21CCN(Cc2cn(CC(O)C3CCOCC3)nn2)C(C)C1` (centres unmarked) [Compound 86], the IC50 was below 100 nM.
Turning to `CCc1cc2c(s1)CCO[C@@]21CCN(Cc2cn(CC3(OCCO)CCOCC3)nn2)[C@@H](C)C1` [Compound 87], the IC50 lay within 100 to 500 nM.
In the case of `CCc1cc2c(s1)CCOC21CCN(Cc2cn(CC(O)CF)nn2)C(C)C1` (centres unmarked) [Compound 88] it was below 100 nM.
